Test results reported in publication PMC5607274, “An iterative compound screening contest method for identifying target protein inhibitors using the tyrosine-protein kinase Yes” (Scientific Reports, 2017).

Molecular target: T1, human recombinant Yes [a.a. 2–543 (end)] (Homo sapiens, UniProt P07947)
T1 construct: human recombinant Yes [a.a; 2–543 (end)]; purchased BPS Bioscience 40488
Test: ADP-Glo kinase assay, inhibition rates of Yes phosphorylation activity (first and second screening)
Assay type: biochemical
Conditions: first screening; mean of n = 4 wells; 10 μmol L−1 compound
How it was run: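 Hits from a first pass were rescreened after re-dissolution from fresh powder. The first pass reported the mean inhibition rate of quadruplicate wells per compound. Activity was that of recombinant human Yes [a.a. 2–543] kinase, read out with the ADP-Glo ADP-detection method.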

T1 sequence (P07947 2-543): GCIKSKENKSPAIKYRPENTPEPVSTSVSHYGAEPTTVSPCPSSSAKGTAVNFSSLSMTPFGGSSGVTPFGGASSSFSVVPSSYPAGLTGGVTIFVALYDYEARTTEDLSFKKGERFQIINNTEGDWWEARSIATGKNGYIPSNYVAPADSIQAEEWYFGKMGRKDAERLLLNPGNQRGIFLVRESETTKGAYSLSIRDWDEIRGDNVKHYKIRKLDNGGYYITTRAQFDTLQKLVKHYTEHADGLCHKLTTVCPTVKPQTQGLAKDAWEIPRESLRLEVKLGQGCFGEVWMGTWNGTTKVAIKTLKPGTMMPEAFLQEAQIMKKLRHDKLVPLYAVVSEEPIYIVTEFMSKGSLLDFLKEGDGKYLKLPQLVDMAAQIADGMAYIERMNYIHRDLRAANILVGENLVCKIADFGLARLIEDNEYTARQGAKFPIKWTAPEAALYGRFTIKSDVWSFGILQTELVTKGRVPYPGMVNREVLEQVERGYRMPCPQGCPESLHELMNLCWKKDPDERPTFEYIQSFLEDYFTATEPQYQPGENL

SMILES | First screening IR (inhibition rate) [%]
CC(=O)c1c(C)[nH]c(C(=O)NCCCn2cnc3ccccc32)c1C [Compound Z102448822] | 20
CSCCC(NC(=O)c1ccco1)C(=O)NCc1ccc(CN(C)C)cc1 (centres unmarked) [Compound Z102556578] | -3
c1ccc(-n2ncc3c(SCCc4ccncc4)ncnc32)cc1 [Compound Z103069550] | 11
CCCCn1c(CN2CCN(C(=O)c3ccco3)CC2)nc2c1c(=O)[nH]c(=O)n2Cc1ccccc1 [Compound Z104777504] | -22
CCCCn1c(CN2CCN(c3ncccn3)CC2)nc2c1c(=O)[nH]c(=O)n2Cc1ccccc1 [Compound Z104925552] | 9
CCCCn1c(CN2CCN(c3ccccn3)CC2)nc2c1c(=O)[nH]c(=O)n2Cc1ccccc1 [Compound Z104935524] | 2
O=S(=O)(c1ccccc1C(F)(F)F)N1CCN(Cc2ncc(-c3ccc(Cl)cc3)o2)CC1 [Compound Z105146244] | -3
O=C(CN1CCSc2ccccc21)N1CCN(S(=O)(=O)c2ccc(Cl)s2)CC1 [Compound Z105335628] | -5
Cc1ccccc1CN1CCN(CC(=O)c2cc(C)n(CC3CCCO3)c2C)CC1 (centres unmarked) [Compound Z105957250] | 15
CCCCn1c(CN2CCN(C(=O)C3CCCO3)CC2)nc2c1c(=O)[nH]c(=O)n2Cc1ccccc1 (centres unmarked) [Compound Z105965792] | 1
Cc1cccc(C)c1NC(=O)CN1CCN(C(C(=O)N2CCCCC2)c2ccccc2)CC1 (centres unmarked) [Compound Z106611352] | -11
CN(C)C(=O)CN1CCN(CC(=O)Nc2cc(-c3ccc4c(c3)CCC4)nn2-c2ccccc2)CC1 [Compound Z106627256] | -3
Cc1cc(Br)ccc1NC(=O)Cn1nc(C)c(S(=O)(=O)N2CCC(C)CC2)c1C [Compound Z107308838] | -17
Oc1c(-c2nc3ccccc3c3ccccc23)sc2ncccc12 [Compound Z107727738] | 43
COc1ccc(C(=O)Nc2n[nH]c(-c3ccc(F)cc3)n2)cc1 [Compound Z108548640] | 6
CC(C)(Oc1ccc(Cl)cc1)C(=O)Nc1n[nH]c(-c2ccc(F)cc2)n1 [Compound Z108548764] | 16
O=C(CCCSc1ccccc1)Nc1n[nH]c(-c2ccc(F)cc2)n1 [Compound Z108549090] | 6
O=C(Nc1n[nH]c(-c2ccc(F)cc2)n1)c1ccccc1F [Compound Z108549754] | -11
FC(F)(F)c1nc(N2CCOCC2)c2cnn(Cc3ccccc3)c2n1 [Compound Z108567148] | -2
O=C(NCC1CCCCC1)c1cc(-c2ccccc2)nc2c1cnn2Cc1ccncc1 [Compound Z108748406] | 8

SMILES | First screening IR (inhibition rate) [%]
O=C(Nc1nc2c(s1)CN(Cc1ccccc1)CC2)c1csc(-c2ccsc2)n1 [Compound Z108907460] | 8
CON(C)C(=O)c1cc(-c2ccccc2)nc2c1cnn2Cc1ccncc1 [Compound Z109300154] | -8
O=C(CN1CCN(C(=O)c2cc(-c3ccccc3)nc3c2cnn3Cc2ccncc2)CC1)NC1CC1 [Compound Z109522106] | 12
COc1ccc(Cl)cc1CN(C)C(=O)c1cc(C(C)C)nc2c1cnn2C(C)C [Compound Z110143980] | -14
COc1ccccc1C(=O)Nc1ccc(Nc2nc(-c3ccccc3)c3cc(C)ccc3n2)cc1 [Compound Z111781008] | 8
Cc1cc(SC(C)C(=O)Nc2ccc3[nH]c(=O)[nH]c3c2)nc2ccccc12 (centres unmarked) [Compound Z112518822] | -20
Cc1sc2nc(CN3CCC(C)CC3)n(CC(=O)Nc3ccc(N4CCCC4)cc3)c(=O)c2c1C [Compound Z112958446] | -4
CC(Sc1ccc2c(c1)CCC2)C(=O)Nc1sc2c(c1C(N)=O)CCC2 (centres unmarked) [Compound Z113592752] | 1
Cc1cccc(-n2c(=O)c3ccccc3n3c(SCC(=O)NC(C)CCCC(C)C)nnc23)c1C (centres unmarked) [Compound Z113967060] | 15
Cc1noc(C)c1COC(=O)CCc1nc(-c2cccs2)no1 [Compound Z114088706] | 9
Cc1cc(-c2ccccc2)nc(SC(C)C(=O)Nc2sc3c(c2C(N)=O)CCC3)n1 (centres unmarked) [Compound Z114120486] | -3
COc1cc(/C=C/C(=O)c2ccc3c(c2)NC(=O)CO3)ccc1O [Compound Z114950222] | 1
CCCN(CCC)c1ccc(/C=C/C(=O)c2ccc3c(c2)NC(=O)CO3)cc1 [Compound Z114950486] | 26
Cc1nc(-c2ccsc2)sc1C(=O)Nc1ccc(Cl)cc1F [Compound Z115004236] | 6
CN(Cc1cnn(-c2ccccc2)c1)C(=O)c1ccc(Cl)c(S(=O)(=O)N2CCCCCC2)c1 [Compound Z115152726] | 4
Cc1noc(C)c1S(=O)(=O)N1CCN(C(=O)CCc2c(C)[nH]c(=O)c(C#N)c2C)CC1 [Compound Z115241120] | 12
O=C(NCCCN1CCCC1=O)c1cc(-c2ccccc2)nc2c1cnn2Cc1cccc(F)c1 [Compound Z116386688] | 3
NC(=O)c1cc(-c2ccccc2)nc2c1cnn2Cc1ccc(Cl)cc1 [Compound Z116821638] | 1
CN(C)C(CNC(=O)c1cc(-c2ccccc2)nc2c1cnn2Cc1ccncc1)c1ccccc1 (centres unmarked) [Compound Z116834630] | -16
O=C(c1cc(-c2ccccc2)nc2c1cnn2Cc1cccc(F)c1)N1CCC1 [Compound Z117073454] | 5

SMILES | First screening IR (inhibition rate) [%]
Cc1cc(=O)c(C(=O)N2CCC(C(=O)N3CCCCCC3)CC2)nn1-c1ccccc1F [Compound Z117548264] | 2
CCN(CC)Cc1ccccc1CNC(=O)c1c(C)nn(-c2ccc(F)cc2)c1C [Compound Z117807680] | 9
Cc1ccc(Nc2ccnc(Nc3ccc(C)cc3)n2)cc1 [Compound Z118512882] | -5
O=C(NC1CCS(=O)(=O)C1)c1nc(Cl)c(Cl)c(Cl)c1Cl (centres unmarked) [Compound Z118688092] | -7
O=C(Nc1ccc2[nH]c(=O)[nH]c2c1)c1occc1-c1ccccc1 [Compound Z118811128] | 19
O=C(Nc1n[nH]c(-c2ccc(F)cc2)n1)c1csc2c1CCCC2 [Compound Z119708890] | -5
Cc1ccc(-c2nc(NC(=O)c3ccc(F)cc3F)n[nH]2)cc1 [Compound Z119762582] | -5
Cc1ccc2nc(-c3ccc(Nc4nnc(Cc5csc(C)n5)s4)cc3)sc2c1 [Compound Z119992430] | 40
CC(C(=O)N1CCN(S(=O)(=O)c2ccccc2)CC1)N1CCC(C(N)=O)CC1 (centres unmarked) [Compound Z123938232] | 0
Cc1c(C#N)c(NC(=O)CN2CCN(Cc3nc4ccccc4s3)CC2)n(CC2CCCO2)c1C (centres unmarked) [Compound Z125608446] | 12
O=C(CN1CCN(Cc2nc3scc(-c4ccc(F)cc4)c3c(=O)[nH]2)CC1)N1CCCCCC1 [Compound Z126042696] | 22
Cc1ccc(-c2c(C)sc3nc(CN4CCN(CC(=O)N5CCCCCC5)CC4)[nH]c(=O)c23)cc1 [Compound Z126044810] | -3
Cc1c(C#N)c(NC(=O)CN2CCC(n3c(=O)[nH]c4ccccc43)CC2)n(Cc2ccco2)c1C [Compound Z126941634] | 9
COCCNC(=O)CN1CCN(c2nc(-c3cccnc3)nc3scc(-c4ccccc4)c23)CC1 [Compound Z128012326] | 9
CC(Nc1ccc([N+](=O)[O-])cc1[N+](=O)[O-])c1nnc2ccccn12 (centres unmarked) [Compound Z128086498] | -9
COc1ccc(-c2csc3nc(C)nc(N4CCCN(CC(=O)NC(C)(C)C)CC4)c23)cc1OC [Compound Z128141646] | -7
COc1ccc(OC)c2c1CN(c1nc(CN3CCOCC3)nc3sc(C)c(C)c13)CC2O (centres unmarked) [Compound Z128154998] | 47
Cc1c(C#N)c(NC(=O)CN2CCC(n3c(=O)[nH]c4ccccc43)CC2)n(Cc2cccs2)c1C [Compound Z130194258] | 22
CN(C1(C)CCS(=O)(=O)C1)S(=O)(=O)c1ccc(Cl)c(Cl)c1 (centres unmarked) [Compound Z131022412] | 2
Cc1ccc(S(=O)(=O)N(C)C2(C)CCS(=O)(=O)C2)cc1 (centres unmarked) [Compound Z131022526] | 3

Same assay, conditions: second screening, dissolved from fresh powder; n = 4; 10 μmol L−1 compound

SMILES | Second screening IR (inhibition rate) [%]
Oc1c(-c2nc3ccccc3c3ccccc23)sc2ncccc12 [Compound Z107727738] | 24
COc1ccc(OC)c2c1CN(c1nc(CN3CCOCC3)nc3sc(C)c(C)c13)CC2O (centres unmarked) [Compound Z128154998] | -4
